# According to patent publication US11202743B2, “Personal care compositions comprising fatty acid amide derivatives” (Conopco, Inc., priority 2016, dated 2021):
# Key:
# human CB1 receptor = human CB1 receptor (Homo sapiens (Human), UniProt P21554); test: CB1 receptor binding assay, displacement of 3H CP-55,940 from membrane preparation; conditions: inhibition of 3H CP-55,940 binding (1 nM), human CB1 membranes
# Procedure: (§1) The ability of the compounds according to some embodiments of the present invention to inhibit a radiolabeled cannabinoid ligand, CP-55,940, [Side chain-2,3,4(N)-3H(N)]-(Perkin-Elmer Cat. # NET1051) to either the human CB1 receptor or CB2 receptor was determined according to the manufacturer's instructions in the commercially available membrane preparations from Perkin Elmer (Cat Nos. RBHCB1M400UA and RBXCB2M400UA). Briefly, pre-treatment of the glass fiber membrane of a Matrix 96 well GFC filtration microtiter plate was done in order to help reduce non-specific binding of the radioligand to the GFC membrane. This was done by adding 150 μl of 0.5% polyethylimine (PEI) to each well and letting this remain in the plate for at least 4 hours before using it to terminate the binding reaction. The actual binding reaction was performed in a polypropylene (PP) round bottom 96-well microtiter plate. Briefly, 55 μl of assay buffer (50 mM TRIS pH7.4, 2.5 mM EGTA, 5 mM MgCl2, 120 mM NaCl, 0.1% Fatty acid free BSA) was added to each well, followed by 20 μl of a 0.4 mg/ml CB1 or CB2 membrane suspension (8 μg membrane per well). To initiate the reaction, 20 μl of 5 nM ^3H CP-55,940 (1 nM final concentration) was added to each well. Nonspecific binding was defined in the presence of 20 μM unlabeled WIN 55212 (Sigma cat. W-102). ACEA was routinely used as a positive control for both assays. The plate was shaken on an orbital plate shaker and the binding reaction proceeded until equilibrium was reached after 3 hours at room temperature. Using a Multiscreen vacuum manifold, the PEI was filtered through the GFC filter plate. The binding reaction in the PP plate was mixed by aspirating the reaction contents of each well and dispensing back into the plate. This was repeated 4 times and then 75 μl of the reaction mixture was transferred to the GFC plate. This procedure could be done row by row with the use of a multichannel pipette, or all at once if using automation. Once the entire content of the PP plate was transferred to the GFC plate, the binding reactions were terminated by filtering thru the GFC plate. The filter plate was then washed by adding 100 μl ice-cold wash buffer 50 mM TRIS pH 7.4, 2.5 mM EGTA, 5 mM MgCl2, 120 mM NaCl, 2% Fatty acid free BSA) to each well and filtering through. This was repeated 8 times, after which the filter mat was allowed to dry. Once the filter mat was dry, 50 μl of Microscint scintillation cocktail was added to each well, allowed to sit for 15-20 min, and the plate read on a Microbeta2 scintillation counter.
# (§2) The lower the IC50 value, the higher the binding.
# [1] = biological target: recombinant human FAAH enzyme (Homo sapiens (Human), UniProt O00519); test: FAAH inhibition assay (Cayman Chemicals kit, AMC-arachidonoyl amide hydrolysis, fluorescence); assay type: biochemical
# Procedure: The ability of the compounds according to some embodiments of the present invention to inhibit FAAH was determined according to the methods disclosed a commercially available kit from Cayman Chemicals (Cayman Cat. No. 10005196). The kit utilizes recombinant human FAAH enzyme which hydrolyzes AMC-arachidonoyl amide resulting in the release of the fluorescent product, 7-amino-4-methylcoumarin (AMC). The fluorophore was detected via fluorescence, using an excitation wavelength of 340-360 nm and an emission wavelength of 450-465 nm. The assay was followed as described in the kit manual, which can be found on the webpage of Cayman Chemicals.
# human CB2 receptor = human CB2 receptor (Homo sapiens (Human), UniProt P34972); test: CB2 receptor binding assay, displacement of 3H CP-55,940 from membrane preparation; conditions: inhibition of 3H CP-55,940 binding (1 nM), human CB2 membranes
# Procedure: as §1, §2
# [2] = Effect on solubility of 12 HSA (visual observation); assay type: physicochemical
# [3] = tested on: serotonin-induced scratches (itch); conditions: mice; cited from earlier work
# [4] = 48.28% Tween 20, 34.48% 12-HSA, 17.24% compound
# [5] = 41.18% Tween 60, 29.41% 12-HSA, 29.41% compound
# [6] = 41.18% Tween 20, 29.41% 12-HSA, 29.41% compound
# [7] = 41.67% Tween 60, 41.67% 12-HSA, 16.67% compound
# human CB1 receptor, sequence (P21554 whole entry): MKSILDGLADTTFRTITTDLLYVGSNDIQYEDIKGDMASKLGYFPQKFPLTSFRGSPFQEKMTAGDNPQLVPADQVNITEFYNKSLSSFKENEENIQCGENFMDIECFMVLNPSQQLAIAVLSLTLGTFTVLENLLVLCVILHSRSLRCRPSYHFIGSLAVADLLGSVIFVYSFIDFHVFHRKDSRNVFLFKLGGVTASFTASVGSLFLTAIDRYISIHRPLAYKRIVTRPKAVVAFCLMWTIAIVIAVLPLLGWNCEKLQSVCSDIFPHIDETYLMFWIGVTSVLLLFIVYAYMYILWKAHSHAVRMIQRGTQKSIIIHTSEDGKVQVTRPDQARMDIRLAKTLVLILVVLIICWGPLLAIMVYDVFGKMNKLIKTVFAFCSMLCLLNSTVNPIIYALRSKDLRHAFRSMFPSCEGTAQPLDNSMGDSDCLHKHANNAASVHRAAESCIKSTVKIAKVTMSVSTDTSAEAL
# human CB2 receptor, sequence (P34972 whole entry): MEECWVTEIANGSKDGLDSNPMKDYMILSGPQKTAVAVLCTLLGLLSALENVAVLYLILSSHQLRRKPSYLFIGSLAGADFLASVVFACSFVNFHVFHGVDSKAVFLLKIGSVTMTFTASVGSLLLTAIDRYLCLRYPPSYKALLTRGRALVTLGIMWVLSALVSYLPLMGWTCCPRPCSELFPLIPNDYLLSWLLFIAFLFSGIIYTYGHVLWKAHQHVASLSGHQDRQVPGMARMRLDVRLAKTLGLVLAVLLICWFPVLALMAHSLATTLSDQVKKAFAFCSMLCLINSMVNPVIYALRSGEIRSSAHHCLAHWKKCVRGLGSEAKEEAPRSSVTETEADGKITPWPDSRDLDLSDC
# recombinant human FAAH enzyme, sequence (O00519 whole entry): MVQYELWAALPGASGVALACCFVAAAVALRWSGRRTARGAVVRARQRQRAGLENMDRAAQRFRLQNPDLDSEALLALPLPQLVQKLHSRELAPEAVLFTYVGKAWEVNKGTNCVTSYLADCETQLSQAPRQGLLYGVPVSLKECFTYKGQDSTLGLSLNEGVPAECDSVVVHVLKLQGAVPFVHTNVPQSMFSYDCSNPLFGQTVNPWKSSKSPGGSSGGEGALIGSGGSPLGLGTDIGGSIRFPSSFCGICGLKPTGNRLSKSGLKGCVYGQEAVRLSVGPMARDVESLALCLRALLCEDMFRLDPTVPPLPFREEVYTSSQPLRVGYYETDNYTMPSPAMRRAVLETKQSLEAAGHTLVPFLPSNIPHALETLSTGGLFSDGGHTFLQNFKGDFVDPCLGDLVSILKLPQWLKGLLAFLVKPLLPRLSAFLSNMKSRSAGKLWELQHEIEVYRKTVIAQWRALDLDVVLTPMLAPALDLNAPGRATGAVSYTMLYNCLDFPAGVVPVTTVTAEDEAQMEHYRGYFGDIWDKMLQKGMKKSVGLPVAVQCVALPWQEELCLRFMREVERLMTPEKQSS
Compound,CB1 IC50 (human CB1 receptor),IC50 [1],CB2 IC50 (human CB2 receptor),other results
CCCCCCC(O)CCCCCCCCCCC(=O)NC(C)C(=O)O (centres unmarked) [Compound 17],no binding activities,40 µM,no binding activities,–
CCCCC/C=C\C=C\CCCCCCCCC(=O)NCCC(=O)O [Compound 4],–,2.8 µM,–,IC50 (human CB1 receptor): 22 µM; IC50 (human CB2 receptor): 26 µM
CCCCCC/C=C/C=C\CCCCCCCC(=O)NCC(=O)O [Compound 5],No binding,3.5 µM,No binding,"Observation ([2]; 33.33% Tween 20, 41.67% 12-HSA, […] compound): translucent; Observation ([2]; 40% Tween 20, 30% 12-HSA, 10% compound): translucent; Observation ([2]; 40.00% Tween 20, 40% 12-HSA, 20% compound): translucent; Observation [2, 4]: translucent; Observation ([2]; 48.28% Tween 60, 34.48% 12-HSA, 17.24% compound): translucent"
NC(=O)c1cccc(-c2cccc(OC(=O)NC3CCCCC3)c2)c1 [URB597],–,–,–,Serotonin-induced scratches (itch) [3]: attenuate
conjugated linoleyl glycinate acid [Compound 1],No binding,2.6 µM,No binding,–
CCCCCCC(O)C/C=C\CCCCCCCC(=O)NC(C(=O)O)C(C)CC (centres unmarked) [Compound 13],–,–,–,"Observation [2, 5]: translucent"
CCCCCCC(O)CCCCCCCCCCC(=O)NC(CCC(=O)O)C(=O)O (centres unmarked) [Compound 19],–,–,–,"Observation ([2]; 50.00% Tween 60, 35.71% 12-HSA, 14.29% compound): translucent"
CCCCC/C=C\C=C\CCCCCCCCC(=O)NC(C)C(=O)O (centres unmarked) [Compound 2],No binding,2.6 µM,No binding,–
CCCCCCC(O)C/C=C\CCCCCCCC(=O)NC(C)C(=O)O (centres unmarked) [Compound 12],no binding activities,42 µM,no binding activities,"Observation [2, 6]: translucent; Observation [2, 5]: translucent"
CCCCCC/C=C/C=C/CCCCCCCC(=O)NCCC(=O)O [Compound 3],–,2.8 µM,–,"Observation [2, 4]: translucent; IC50 (human CB1 receptor): 22 µM; IC50 (human CB2 receptor): 26 µM"
CCCCC/C=C\C=C\CCCCCCCCC(=O)NCC(Cc1c[nH]cn1)C(=O)O (centres unmarked) [Compound 9],–,13 µM,–,IC50 (human CB2 receptor): 38 µM
CCCCCCC(O)C/C=C\CCCCCCCC(=O)NC(CCC(=O)O)C(=O)O (centres unmarked) [Compound 15],–,–,–,"Observation [2, 5]: translucent; Observation [2, 7]: translucent"
CCCCCC/C=C/C=C/CCCCCCCC(=O)NC(CC(=O)O)Cc1c[nH]cn1 (centres unmarked) [Compound 10],–,13 µM,–,IC50 (human CB2 receptor): 38 µM
CCCCC/C=C\C=C\CCCCCCCCC(=O)NC(Cc1ccccc1)C(=O)O (centres unmarked) [Compound 8],No binding,11 µM,No binding,–
CCCCCCC(O)CCCCCCCCCCC(=O)NCC(=O)O (centres unmarked) [Compound 18],no binding activities,46 µM,no binding activities,"Observation ([2]; 48.39% Tween 60, 48.39% 12-HSA, 3.23% compound): translucent"
CCCCCCC(O)C/C=C\CCCCCCCC(=O)NCC(=O)O (centres unmarked) [Compound 14],no binding activities,26 µM,no binding activities,"Observation [2, 6]: translucent; Observation [2, 5]: translucent"
CCCCC/C=C\C=C\CCCCCCCCC(=O)NCC(=O)O [Compound 6],No binding,3.5 µM,No binding,–
CCCCC/C=C\C=C\CCCCCCCCC(=O)NC(CCC(=O)O)C(=O)O (centres unmarked) [Compound 11],No binding,–,No binding,"Observation [2, 5]: translucent/clear; Observation [2, 7]: translucent; FAAH IC50 [1]: No binding"
CCCCCCC(O)CCCCCCCCCCC(=O)NC(CC(=O)O)C(=O)O (centres unmarked) [Compound 16],–,–,–,"Observation ([2]; 45.16% Tween 60, 38.71% 12-HSA, 16.13% compound): translucent"
CCCCCC/C=C/C=C\CCCCCCCC(=O)NC(Cc1ccccc1)C(=O)O (centres unmarked) [Compound 7],No binding,11 µM,No binding,–
